# In patent publication US9480701B2, “Low anticoagulant heparins” (priority 2012, dated 2016):
# Entries after “also recorded” stand apart in the source; their conditions may differ. Like-named read-outs stand apart in the source and are kept apart here.
# Experiments:
# [1] = Rat tail incision bleeding time after i.v. dosing; type: in vivo, Sprague-Dawley rats
# Method: (§1) Heparin and a LMWH preparation (Fragmin) were also studied for comparison. Basic test procedures were as follows:
# The incision was 9 mm long and 1 mm deep and was standardized using a template device. Blood was blotted from the incision until bleeding stopped. The time during which visible bleeding could be observed was measured, for up to 25 minutes. The longer the bleeding time, the more pronounced the anti-coagulant effects of the administered agent.
# (§2) The following compounds and doses were tested (each in groups of 8 rats) in juvenile rats of age 14±1 days: • 2. Saline: (Negative Control) • 3.
# [2] = Coagulation parameters (APTT, PT) in citrate plasma of dosed rats; type: in vivo, Sprague-Dawley rats
# Method: as §1
# Forty minutes after dosing, the rats were sacrificed by full bleeding. Citrate stabilized plasma was prepared from the blood. Plasma was stored in aliquots of 1 or 0.5 mL at −70° C. until analysis of APTT and PT.
# as §2
# [3] = test system: rosettes of the parasite FCR3S1.2; experiment: Rosette disruption in vitro, parasite clone FCR3S1.2 and parasite cultures; type: cell-based, Plasmodium falciparum; conditions: for Disruption of rosettes: parasite FCR3S1.2, FIG. 5
# [4] = test system: binding of pE to endothelial cells; experiment: Cytoadherence blocking and disruption, dynamic incubation; type: cell-based, Plasmodium falciparum; conditions: for Binding of pE to endothelial cell inhibited or reversed: parasite FCR3S1.2, FIG. 7
# [5] = test system: merozoite invasion of erythrocytes (P. falciparum, parasite FCR3S1.2); experiment: Merozoite invasion inhibition assay; type: cell-based; conditions: for Merozoite invasion into fresh red blood cells inhibited: parasite FCR3S1.2, FIG. 8
# Method: The merozoite invasion inhibition assay was performed with chemically modified heparin and unfractionated heparin Mature pE (trophozoite) synchronized P. falciparum cultures with a parasitemia of 0.4% and a hematocrit of 2% were grown in micro-cultures (100 ul) in the presence of increasing concentrations of chemically modified heparin or unfractionated heparin at 37° C. for 24-30 h. In order to quantify the parasitemia, the samples were stained for 10 s with acridine orange and then analyzed using a FACS instrument from Becton Dickinson. A minimum of 50,000 cells per sample were collected.
# [6] = test system: factor Xa; conditions: for comparison; not said whether anti-factor Xa or anti-factor IIa; cited from earlier work
# [7] = molecular target: factor IIa (Homo sapiens, UniProt P00734)
# [8] = test system: factor Xa
# [9] = test system: rosettes of fresh isolates of children with severe, complicated or mild malaria; conditions: 100 and 1000 μg/ml, FIG. 6
# [10] = test system: P. falciparum-infected erythrocytes sequestered in the lungs
# Method: Human pE were cultivated in vitro and enriched to a parasitemia above 70%. Prior to injection into the animals, human infected erythrocytes were radioactively labeled with ^99mTc. The rats were anaesthetized and the labeled pE erythrocytes were injected intravenously into the tail vein. […] The distribution of the labeled cells was monitored using a gamma camera for 30 min. The relative amount of labeled cells sequestered in the lungs was calculated by comparing the activity of excised lungs to that of the whole animal.
# [11] = rat bleeding model, normalized to unfractionated heparin = 1
substance,measurement,setting,value
Heparin [reference compound],"Relative Doses (estimated equipotent relative doses), Bleeding time","[1]; rat, in vivo",1
same,Anti-coagulant effect (bleeding time and coagulation parameters),"[1]; rat, in vivo, iv",profound effect on all parameters
same,"Relative Doses (estimated equipotent relative doses), APTT","[2]; rat, in vivo",1
same,Disruption of rosettes,[3],dose dependent manner
same,Binding of pE to endothelial cell inhibited or reversed,[4],dose dependent manner
same,Merozoite invasion into fresh red blood cells inhibited,[5],dose dependent manner
same,"Specific anti-coagulant activity, value corresponding to Table 5",[6],at least 180 IU/mg
sevuparin sodium [DF02],Anti-coagulant effect (bleeding time and coagulation parameters),"[1]; adult rats, i.v.",low anti-coagulant effect
same,Anti-coagulant effect (bleeding time and coagulation parameters),"[1]; juvenile rats, age 14±1 days",low anti-coagulant effect
same,"Relative Doses (estimated equipotent relative doses), Bleeding time",[1]; [11],30-50
same,Effect on PT,"[2]; adult rats, i.v.",too weak to allow for comparative estimates
same,Effect on PT,"[2]; juvenile rats, age 14±1 days",weak
same,"Relative Doses (estimated equipotent relative doses), APTT",[2]; [11],30-40
same,Disruption of rosettes at highest concentration,"[3]; 1000 μg/ml, with some parasites",total or close to total disruption of rosettes
same,Disruption of rosettes,[3],dose dependent manner
same,Cytoadherence disruption: reduction of binding,"[4]; pE adhered to the endothelium before incubation, FIG. 7",Up to 80%
same,Cytoadherence blocking: binding of pE blocked compared with untreated samples,[4]; pE and substance added simultaneously to the endothelium,Up to 80%
same,Binding of pE to endothelial cell inhibited or reversed,[4],dose dependent manner
same,Inhibitory effect on merozoite invasion compared with heparin,[5]; in vitro,equal potency per mg to heparin; also recorded: equal to those of standard heparin
same,Merozoite invasion into fresh red blood cells inhibited,[5],dose dependent manner
same,Anticoagulant FIIa activity,[7]; drug substance Batch 1,4.6 IU/mg
same,Anticoagulant FIIa activity,[7]; drug substance Batch 2,5.0 IU/mg
same,Anticoagulant FIIa activity,[7]; drug substance Batch 3,3.8 IU/mg
same,Anticoagulant activity anti-factor Xa,[8]; drug substance Batch 1,3.9 IU/mg
same,Anticoagulant activity anti-factor Xa,[8]; drug substance Batch 2,4.9 IU/mg
same,Anticoagulant activity anti-factor Xa,[8]; drug substance Batch 3,5.5 IU/mg
same,Sensitivity of rosettes of fresh isolates to treatment,[9],sensitive
same,Sequestration of infected erythrocytes in the lungs of rats,[10]; FIG. 9,can be inhibited
same,"Retention of uninfected labeled human erythrocytes, co-injection versus no substance",[10]; rat,No difference was seen
